Test results as given in PMC10281575, “PfCRT mutations conferring piperaquine resistance in falciparum malaria shape the kinetics of quinoline drug binding and transport” (PLOS Pathogens, 2023).
“And” between values parts separate entries of the source, which are not always exact repeats. Equal entries are not always repeated.

Target: T1, PfCRT^Dd2 (Plasmodium falciparum, UniProt Q8IBZ9, A220S/I356T/K76T/M74I/N326S/N75E/Q271E/R371I)
T1 sequence (Q8IBZ9 1-424 M74I/N75E/K76T/A220S/Q271E/N326S/I356T/R371I): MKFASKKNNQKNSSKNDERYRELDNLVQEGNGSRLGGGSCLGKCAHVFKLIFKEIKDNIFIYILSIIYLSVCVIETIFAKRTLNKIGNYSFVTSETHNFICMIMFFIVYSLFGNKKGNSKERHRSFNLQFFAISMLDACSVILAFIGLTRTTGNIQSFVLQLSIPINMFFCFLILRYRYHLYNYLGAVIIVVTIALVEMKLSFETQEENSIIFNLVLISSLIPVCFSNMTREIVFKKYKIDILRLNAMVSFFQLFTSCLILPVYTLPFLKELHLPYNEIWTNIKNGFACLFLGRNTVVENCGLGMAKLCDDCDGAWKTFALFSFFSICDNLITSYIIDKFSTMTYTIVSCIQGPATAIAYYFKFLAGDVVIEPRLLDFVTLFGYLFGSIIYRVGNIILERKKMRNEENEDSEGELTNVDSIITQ
Assay: Verapamil inhibition of PfCRT-mediated CQ and PPQ transport in oocytes, PfCRT^Dd2
Format: cell-based
Set-up: expressed in transfected cells; host or cells: Xenopus laevis oocytes injected with in vitro transcribed RNA (pSP64T)
Details: individual replicates (S3 Fig)
Protocol: In all cases, the PfCRT-mediated CQ and PPQ transport was inhibited in the presence of 100 μM verapamil (S3 Fig).
Drug transport assays were performed as previously described. Briefly, measurements of radiolabeled drug uptake were made over 1 h, unless otherwise specified. […] Where specified, one or more unlabeled drugs were also present at the indicated concentrations. The direction of drug transport in the assays is from the extracellular medium (pH 6) into the oocyte cytosol (pH 7.2), which corresponds to the efflux of CQ or PPQ from the acidic digestive vacuole (pH 5.2) into the parasite cytosol (pH 7.2). The uptake assays were terminated by removing the oocytes from the reaction medium and washing them three times with 2 mL of ice-cold ND96 buffer. Each oocyte was transferred to a separate scintillation vial and lysed by the addition of 200 μL of a 5% SDS solution. The radioactivity in the sample was measured using a liquid scintillation analyser Tri-Carb 4910 TR (PerkinElmer). Water-injected oocytes were analyzed in parallel as a negative control. The buffer from each condition was measured in duplicate in parallel to each experiment to transform counts per minute into pmol of drug. Drug uptake attributable to PfCRT was determined by subtracting the background uptake from water-injected oocytes from that of PfCRT-expressing oocytes. In all cases, at least three independent experiments were performed on oocytes from different frogs, and for each condition in an experiment, measurements were made from 10 oocytes per treatment.
Supplementary file ppat.1011436.s006.tif: S3 Fig Verapamil inhibits PfCRT-mediated transport of CQ and PPQ. […] Left panels, data is shown as individual biological replicates (coloured symbols) overlaid onto bars representing the Mean ± S.E.M. (error bars). A one-tailed Student’s t-test was performed between untreated (no VP) and treated (+ 100 μM VP) samples, and the obtained p values are shown. Right panels, the uptake in VP-treated samples was divided by the uptake in their corresponding untreated pairs and subtracted from 100% to get the percentage of uptake inhibition mediated by the presence of 100 μM verapamil in the extracellular medium. Error bars are S.E. (TIF) Click here for additional data file.

CCN(CC)CCCC(C)Nc1ccnc2cc(Cl)ccc12 (stereo not shown) [CQ, chloroquine]
PfCRTDd2-mediated CQ transport (50 µM CQ + 100 µM VP): 1.980 pmol oocyte-1 h-1 and 2.230 pmol oocyte-1 h-1 and 2.450 pmol oocyte-1 h-1 and 1.670 pmol oocyte-1 h-1 and 3.620 pmol oocyte-1 h-1 | PfCRTDd2-mediated CQ transport (50 µM CQ): 3.900 pmol oocyte-1 h-1 and 4.910 pmol oocyte-1 h-1 and 4.760 pmol oocyte-1 h-1 and 7.490 pmol oocyte-1 h-1 and 5.040 pmol oocyte-1 h-1 and 3.980 pmol oocyte-1 h-1 and 10.460 pmol oocyte-1 h-1

Clc1ccc2c(N3CCN(CCCN4CCN(c5ccnc6cc(Cl)ccc56)CC4)CC3)ccnc2c1 [PPQ, piperaquine]
PfCRTDd2-mediated PPQ transport (50 µM PPQ + 100 µM VP): 5.44 pmol oocyte-1 h-1 and 8.16 pmol oocyte-1 h-1 and 20.06 pmol oocyte-1 h-1 and 36.26 pmol oocyte-1 h-1 and 13.97 pmol oocyte-1 h-1 | PfCRTDd2-mediated PPQ transport (50 µM PPQ): 28.14 pmol oocyte-1 h-1 and 21.87 pmol oocyte-1 h-1 and 89.78 pmol oocyte-1 h-1 and 46.28 pmol oocyte-1 h-1 and 30.01 pmol oocyte-1 h-1 and 33.33 pmol oocyte-1 h-1
